Each structure is given as a SMILES string.

The target of the assay is CK2A1 (CK2α/β) (Homo sapiens, UniProt P68400). Nature of the assay: CK2 kinase assay, CK2A1 (CK2α/β). In kind it is biochemical. The following applies: Table A; read-out: CK2A1 (CK2α/β) (IC50).
CK2A1 (CK2α/β), sequence (P68400 whole entry, species assumed): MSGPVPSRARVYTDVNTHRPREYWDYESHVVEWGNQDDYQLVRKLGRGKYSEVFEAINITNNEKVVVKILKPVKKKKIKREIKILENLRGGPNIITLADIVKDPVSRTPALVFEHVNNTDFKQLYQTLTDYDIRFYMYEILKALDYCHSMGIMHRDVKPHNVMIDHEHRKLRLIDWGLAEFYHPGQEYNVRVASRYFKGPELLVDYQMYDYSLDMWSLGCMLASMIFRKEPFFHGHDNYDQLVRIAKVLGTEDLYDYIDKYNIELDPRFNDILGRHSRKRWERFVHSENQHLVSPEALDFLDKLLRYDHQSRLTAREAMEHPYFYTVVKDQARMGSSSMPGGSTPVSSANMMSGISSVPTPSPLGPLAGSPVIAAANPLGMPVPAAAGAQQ
CK2A1 (CK2α/β), sequence (P67870 whole entry partner, species assumed): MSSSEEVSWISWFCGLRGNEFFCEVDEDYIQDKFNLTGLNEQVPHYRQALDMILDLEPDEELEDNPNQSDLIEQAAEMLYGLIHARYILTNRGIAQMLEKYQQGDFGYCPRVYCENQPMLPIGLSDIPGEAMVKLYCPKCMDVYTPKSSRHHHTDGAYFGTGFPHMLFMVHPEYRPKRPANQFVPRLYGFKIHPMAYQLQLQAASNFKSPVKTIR
With `CC(=O)N[C@H]1CCN(Cc2cc(C#N)cc(Nc3nc(NC4CC4)c4ncc(C#N)n4n3)c2Cl)C1` [Example 473, N-[(3S)-1-[(2-chloro-5-cyano-3-{[7-cyano-4-(cyclopropylamino)imidazo[2,1-f][1,2,4]triazin-2-yl]amino}phenyl)methyl]pyrrolidin-3-yl]acetamide], the IC50 is 0.56 nM.
In the case of `N#CCCN(Cc1cc(C#N)cc(Nc2nc(NC3CC3)c3ncc(C#N)n3n2)c1Cl)CC1CCCO1` (stereo not shown) [Example 474, 2-[(2-chloro-5-cyano-3-{[(2-cyanoethyl)(oxolan-2-ylmethyl)amino]methyl}phenyl)amino]-4-(cyclopropylamino)imidazo[2,1-f][1,2,4]triazine-7-carbonitrile], the IC50 turned out to be 1.55 nM.
Consider `COCCN(C)Cc1cc(C#N)cc(Nc2nc(NC3CC3)c3ncc(C#N)n3n2)c1Cl` [Example 475, 2-[(2-chloro-5-cyano-3-{[(2-methoxyethyl)(methyl)amino]methyl}phenyl)amino]-4-(cyclopropylamino)imidazo[2,1-f][1,2,4]triazine-7-carbonitrile], for which the IC50 is 1.78 nM.
On to `COCCN1CCN(Cc2cc(C#N)cc(Nc3nc(NC4CC4)c4ncc(C#N)n4n3)c2Cl)CC1` [Example 476, 2-[(2-chloro-5-cyano-3-{[4-(2-methoxyethyl)piperazin-1-yl]methyl}phenyl)amino]-4-(cyclopropylamino)imidazo[2,1-f][1,2,4]triazine-7-carbonitrile], for which the IC50 was 2.98 nM.
Under `N#Cc1cc(CN2CCC(F)(F)CC2)c(Cl)c(Nc2nc(NC3CC3)c3ncc(C#N)n3n2)c1` [Example 477, 2-({2-chloro-5-cyano-3-[(4,4-difluoropiperidin-1-yl)methyl]phenyl}amino)-4-(cyclopropylamino)imidazo[2,1-f][1,2,4]triazine-7-carbonitrile] stands 2.43 nM.
The same measure for `COC(=O)N1CCN(Cc2cc(C#N)cc(Nc3nc(NC4CC4)c4ncc(C#N)n4n3)c2Cl)CC1` [Example 478, methyl 4-[(2-chloro-5-cyano-3-{[7-cyano-4-(cyclopropylamino)imidazo[2,1-f][1,2,4]triazin-2-yl]amino}phenyl)methyl]piperazine-1-carboxylate]: 1.31 nM; for `N#Cc1cc(CNC2COC2)c(Cl)c(Nc2nc(NC3CC3)c3ncc(C#N)n3n2)c1` [Example 479, 2-[(2-chloro-5-cyano-3-{[(oxetan-3-yl)amino]methyl}phenyl)amino]-4-(cyclopropylamino)imidazo[2,1-f][1,2,4]triazine-7-carbonitrile]: 1.07 nM.
With `CC(=O)N1CC(N2CCN(c3cc(C#N)cc(Nc4nc(NC5CC5)c5ncc(C#N)n5n4)c3Cl)CC2)C1` [Example 480, 2-({3-[4-(1-acetylazetidin-3-yl)piperazin-1-yl]-2-chloro-5-cyanophenyl}amino)-4-(cyclopropylamino)imidazo[2,1-f][1,2,4]triazine-7-carbonitrile], the IC50 turned out to be 0.86 nM.
Consider `N#Cc1cc(Nc2nc(NC3CC3)c3ncc(C#N)n3n2)c(Cl)c(N2CCN(C3CN(C(=O)C4(O)CC4)C3)CC2)c1` [Example 481, 2-[(2-chloro-5-cyano-3-{4-[1-(1-hydroxycyclopropane-carbonyl)azetidin-3-yl]piperazin-1-yl}phenyl)amino]-4-(cyclopropylamino)imidazo[2,1-f][1,2,4]triazine-7-carbonitrile], for which the IC50 turned out to be 0.93 nM.
For the molecule `COCCC(=O)N1CC(N2CCN(c3cc(C#N)cc(Nc4nc(NC5CC5)c5ncc(C#N)n5n4)c3Cl)CC2)C1` [Example 482, 2-[(2-chloro-5-cyano-3-{4-[1-(3-methoxypropanoyl)azetidin-3-yl]piperazin-1-yl}phenyl)amino]-4-(cyclopropylamino)imidazo[2,1-f][1,2,4]triazine-7-carbonitrile], the IC50 came out at 1.52 nM.
The same measure for `N#Cc1cc(Nc2nc(NC3CC3)c3ncc(C#N)n3n2)c(Cl)c(N2CCN(C3CN(C(=O)CC4CCOCC4)C3)CC2)c1` [Example 483, 2-{[2-chloro-5-cyano-3-(4-{1-[2-(oxan-4-yl)acetyl]azetidin-3-yl}piperazin-1-yl)phenyl]amino}-4-(cyclopropylamino)imidazo[2,1-f][1,2,4]triazine-7-carbonitrile]: 0.87 nM.
Regarding `CC(C)(O)C(=O)N1CC(N2CCN(c3cc(C#N)cc(Nc4nc(NC5CC5)c5ncc(C#N)n5n4)c3Cl)CC2)C1` [Example 484, 2-[(2-chloro-5-cyano-3-{4-[1-(2-hydroxy-2-methylpropanoyl)azetidin-3-yl]piperazin-1-yl}phenyl)amino]-4-(cyclopropylamino)imidazo[2,1-f][1,2,4]triazine-7-carbonitrile], the IC50 is 0.81 nM.
Under `N#Cc1cc(Nc2nc(NC3CC3)c3ncc(C#N)n3n2)c(Cl)c(N2CCN(C3CN(C(=O)C4CC4)C3)CC2)c1` [Example 485, 2-({2-chloro-5-cyano-3-[4-(1-cyclopropanecarbonyl-azetidin-3-yl)piperazin-1-yl]phenyl}amino)-4-(cyclopropylamino)imidazo[2,1-f][1,2,4]triazine-7-carbonitrile] stands 0.77 nM.
The same measure for `CS(=O)(=O)CC(=O)N1CC(N2CCN(c3cc(C#N)cc(Nc4nc(NC5CC5)c5ncc(C#N)n5n4)c3Cl)CC2)C1` [Example 486, 2-[(2-chloro-5-cyano-3-{4-[1-(2-methanesulfonylacetyl)azetidin-3-yl]piperazin-1-yl}phenyl)amino]-4-(cyclopropylamino)imidazo[2,1-f][1,2,4]triazine-7-carbonitrile]: 1.61 nM; for `CC(O)C(=O)N1CC(N2CCN(c3cc(C#N)cc(Nc4nc(NC5CC5)c5ncc(C#N)n5n4)c3Cl)CC2)C1` (stereo not shown) [Example 487, 2-[(2-chloro-5-cyano-3-{4-[1-(2-hydroxypropanoyl)azetidin-3-yl]piperazin-1-yl}phenyl)amino]-4-(cyclopropylamino)imidazo[2,1-f][1,2,4]triazine-7-carbonitrile]: 0.73 nM.
For `N#Cc1cc(Nc2nc(NC3CC3)c3ncc(C#N)n3n2)c(Cl)c(N2CCN(C3CN(C(=O)CO)C3)CC2)c1` [Example 488, 2-[(2-chloro-5-cyano-3-{4-[1-(2-hydroxyacetyl)azetidin-3-yl]piperazin-1-yl}phenyl)amino]-4-(cyclopropylamino)imidazo[2,1-f][1,2,4]triazine-7-carbonitrile], the IC50 was 0.6 nM.
For `N#Cc1cc(Nc2nc(NC3CC3)c3ncc(C#N)n3n2)c(Cl)c(N2CCN(C3CN(C(=O)C4CNCCO4)C3)CC2)c1` (stereo not shown) [Example 489, 2-[(2-chloro-5-cyano-3-{4-[1-(morpholine-2-carbonyl)azetidin-3-yl]piperazin-1-yl}phenyl)amino]-4-(cyclopropylamino)imidazo[2,1-f][1,2,4]triazine-7-carbonitrile], the IC50 worked out at 1.4 nM.
Take `CC(C)(O)CC(=O)N1CC(N2CCN(c3cc(C#N)cc(Nc4nc(NC5CC5)c5ncc(C#N)n5n4)c3Cl)CC2)C1` [Example 490, 2-[(2-chloro-5-cyano-3-{4-[1-(3-hydroxy-3-methylbutanoyl)azetidin-3-yl]piperazin-1-yl}phenyl)amino]-4-(cyclopropylamino)imidazo[2,1-f][1,2,4]triazine-7-carbonitrile]: the IC50 was found to be 0.94 nM.
For `N#Cc1cc(Nc2nc(NC3CC3)c3ncc(C#N)n3n2)c(Cl)c(N2CCN(C3CN(C(=O)C(F)F)C3)CC2)c1` [Example 491, 2-[(2-chloro-5-cyano-3-{4-[1-(2,2-difluoroacetyl)azetidin-3-yl]piperazin-1-yl}phenyl)amino]-4-(cyclopropylamino)imidazo[2,1-f][1,2,4]triazine-7-carbonitrile], the IC50 was 1.33 nM.
With `CC(=O)NCC(=O)N1CC(N2CCN(c3cc(C#N)cc(Nc4nc(NC5CC5)c5ncc(C#N)n5n4)c3Cl)CC2)C1` [Example 492, N-(2-{3-[4-(2-chloro-5-cyano-3-{[7-cyano-4-(cyclopropylamino)imidazo[2,1-f][1,2,4]triazin-2-yl]amino}phenyl)piperazin-1-yl]azetidin-1-yl}-2-oxoethyl)acetamide], the IC50 was 0.64 nM.
`N#Cc1cc(Nc2nc(NC3CC3)c3ncc(C#N)n3n2)c(Cl)c(N2CCN(C3CN(C(=O)CN4CCOCC4)C3)CC2)c1` [Example 493, 2-{[2-chloro-5-cyano-3-(4-{1-[2-(morpholin-4-yl)acetyl]azetidin-3-yl}piperazin-1-yl)phenyl]amino}-4-(cyclopropylamino)imidazo[2,1-f][1,2,4]triazine-7-carbonitrile]: the IC50 is 2.03 nM.
Under `CC(C)(CO)C(=O)N1CC(N2CCN(c3cc(C#N)cc(Nc4nc(NC5CC5)c5ncc(C#N)n5n4)c3Cl)CC2)C1` [Example 494, 2-[(2-chloro-5-cyano-3-{4-[1-(3-hydroxy-2,2-dimethylpropanoyl)azetidin-3-yl]piperazin-1-yl}phenyl)amino]-4-(cyclopropylamino)imidazo[2,1-f][1,2,4]triazine-7-carbonitrile] stands 1.99 nM.
`N#Cc1cc(Nc2nc(NC3CC3)c3ncc(C#N)n3n2)c(Cl)c(N2CCN(C3CN(C(=O)CCO)C3)CC2)c1` [Example 495, 2-[(2-chloro-5-cyano-3-{4-[1-(3-hydroxypropanoyl)azetidin-3-yl]piperazin-1-yl}phenyl)amino]-4-(cyclopropylamino)imidazo[2,1-f][1,2,4]triazine-7-carbonitrile]: the IC50 stood at 4.89 nM.
Under `N#Cc1cc(Nc2nc(NC3CC3)c3ncc(C#N)n3n2)c(Cl)c(N2CCN(C3CN(C(=O)CCn4ccnc4)C3)CC2)c1` [Example 496, 2-{[2-chloro-5-cyano-3-(4-{1-[3-(1H-imidazol-1-yl)propanoyl]azetidin-3-yl}piperazin-1-yl)phenyl]amino}-4-(cyclopropylamino)imidazo[2,1-f][1,2,4]triazine-7-carbonitrile] stands 1.82 nM.
For the molecule `COCC(=O)N1CC(N2CCN(c3cc(C#N)cc(Nc4nc(NC5CC5)c5ncc(C#N)n5n4)c3Cl)CC2)C1` [Example 497, 2-[(2-chloro-5-cyano-3-{4-[1-(2-methoxyacetyl)azetidin-3-yl]piperazin-1-yl}phenyl)amino]-4-(cyclopropylamino)imidazo[2,1-f][1,2,4]triazine-7-carbonitrile], the IC50 is 0.82 nM.

(Values after patent US9273057B2 (Bristol-Myers Squibb Company, priority 2012, dated 2016).)
